Reference: patent publication US20140315834A1 (Medicon Pharmaceuticals, Inc., priority 2012, published 2014)
pIC50: −log10 of the molar value. Like-named read-outs stand apart in the source and are kept apart here.

Columns and labels:
in vivo = conditions: wt (wild type) and nude, mouse, po
[1] = system: MDA-MB-231 human BC cells; experiment: Orthotopic MDA-MB-231 breast cancer xenografts, prevention; format: in vivo, mice
CYP 1A2 = CYP 1A2 (Homo sapiens, UniProt P05177); conditions: 37° C., NADPH-regenerating solution
Experimental: (§1) PSA 95 was pre-incubated at 37° C. for 5 minutes with an NADPH-regenerating solution in 0.1 M potassium phosphate buffer (pH 7.4). The reaction was initiated by the addition of individual recombinant human CYP isoforms (25 μmol/ml) in a total volume of 1 ml and samples were maintained at 37° C. for various time periods. At each designated time-point, aliquots were extracted with acetonitrile, and subjected to HPLC analysis.

CYP 2C19 = CYP 2C19 (Homo sapiens, UniProt P33261); conditions: 37° C., NADPH-regenerating solution
Experimental: as §1

CYP 2C9 = CYP 2C9 (Homo sapiens, UniProt P11712); conditions: 37° C., NADPH-regenerating solution
Experimental: as §1

CYP 3A4 = CYP 3A4 (Homo sapiens, UniProt P08684); conditions: 37° C., NADPH-regenerating solution
Experimental: as §1

CYP 2D6 = CYP 2D6 (Homo sapiens, UniProt P10635); conditions: 37° C., NADPH-regenerating solution
Experimental: as §1

[2] = rat, in vivo
[3] = Pharmacokinetics of PTI, plasma levels after i.p. dose
[4] = system: U87 glioblastoma cell line; experiment: 24-hour growth inhibition of glioblastoma cells; format: cell-based; conditions: read-out: 24-h 1c50
A431 skin cancer cells = experiment: Cellular uptake, intracellular level by HPLC; conditions: 1 hour incubation
Experimental: A431 skin cancer cells were seeded into 6-well culture plates (5×10^5 per well). After overnight incubation, the cells were incubated with 100 pM of each compound alone for 1 hour. After the media were removed and the monolayers were washed three times with PBS (1% BSA), the cells were collected in PBS.

[5] = Pharmacokinetics of PI-PEG and PI, i.p.; format: in vivo, mice; conditions: equimolar doses
Experimental: PI-PEG 7 and PI 1 were injected i.p. in mice at equimolar doses and at predetermined time points the animals were sacrificed and blood was collected through heart puncture. PI-PEG and PI were extracted by adding a 2-fold volume of acetonitrile. After centrifugation for 10 minutes at 5000×g, the supernatants were subjected to HPLC analysis.

[6] = system: Salmonella Typhimurium (TA98 and TA100); experiment: Genotoxicity, reverse mutation with and without rat liver S9; conditions: TA98 and TA100, presence and absence of rat liver S9
[7] = Gastrointestinal toxicity, gastric ulcers by H&E staining
SW480 colon cancer cells = experiment: SW480 xenografts, prevention of colon cancer; format: in vivo, mice; conditions: 10 mg/kg/day oral gavage, 43 days, end of study
Experimental: Six-week-old female athymic nude mice, i.e. lacking a thymus gland and having no T-cells (Taconic Farms, Germantown, N.Y.; in =6/group) were treated by oral gavage of PTI 10 mg/kg/day, or vehicle (corn oil) for a total of 43 days. Five days later, 1.2×10^6 SW480 colon cancer cells suspended in 100 μl of phosphate buffered saline (PBS) were inoculated subcutaneously to each flank of the mice. Tumor size was monitored by measuring the length (L) and width (W) with a digital caliper and the volume was calculated according to the formula, L×W×(L+W/2)×0.56.

[8] = Cardiotoxicity, histology of heart tissue sections; format: in vivo, mice; conditions: treated for about 1.5 months
Text: Heart tissue sections from mice treated with PTI for about 1.5 months were examined histologically.

[9] = Pharmacokinetics of phosphosulindac amide, single oral dose; conditions: after single oral dose 100 mg/kg PSA 95
[10] = system: A549 human lung cancer xenografts; experiment: A549 sc xenografts, i.v. PS in nanocarrier vs sulindac; format: in vivo, mice; conditions: equimolar dose of sulindac 40 mg/kg
[11] = Maximum tolerated dose of PA-III; design: species or system mice; conditions: mouse, in vivo
Experimental: The ability of phospho-aspirin III (PA-III) 506 to prevent breast cancer (BC) was evaluated using MDA-MB-231 human BC cells xenografted into one of the mammary glands of nude mice (orthotopic xenografts). PA was administered orally, 120 mg/kg/d 1 week prior to inoculating the cells (the standard prevention protocol); acetylsalicylic acid (ASA) was given at an equimolar dose of 40 mg/kg/d. This was the highest dose of ASA that these mice could tolerate on a long-term basis. The dose of PA-III 506 represents <10% of its maximum tolerated dose (MTD>1,600 mg/kg), but was chosen so that a comparison between PA-III 506 and ASA was possible.

[12] = Levels of PA-III and metabolites in blood and xenografts by HPLC; format: in vivo; conditions: mice treated with PA-III 506
[13] = mouse, in vivo, po, 100 mg/kg
[14] = design: AUC in lung: unit not given beside the values; conditions: mouse, in vivo, inhaled or intranasal
[15] = 120 mg/kg/d orally, 20 treated mice

CYP 2C9, sequence (P11712 whole entry): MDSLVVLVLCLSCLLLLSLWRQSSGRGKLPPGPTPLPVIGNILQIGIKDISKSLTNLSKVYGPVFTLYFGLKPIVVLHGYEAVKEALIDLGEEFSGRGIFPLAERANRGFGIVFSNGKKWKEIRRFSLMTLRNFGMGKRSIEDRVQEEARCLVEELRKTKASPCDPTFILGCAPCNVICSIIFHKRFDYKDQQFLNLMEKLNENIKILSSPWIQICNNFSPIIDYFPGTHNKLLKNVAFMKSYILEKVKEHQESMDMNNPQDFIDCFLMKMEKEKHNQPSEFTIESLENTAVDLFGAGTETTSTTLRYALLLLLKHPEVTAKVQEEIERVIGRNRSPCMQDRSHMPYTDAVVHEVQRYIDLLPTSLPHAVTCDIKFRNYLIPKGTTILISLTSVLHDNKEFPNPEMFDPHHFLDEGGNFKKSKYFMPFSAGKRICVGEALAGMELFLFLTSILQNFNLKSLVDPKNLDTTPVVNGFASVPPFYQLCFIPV
CYP 3A4, sequence (P08684 whole entry): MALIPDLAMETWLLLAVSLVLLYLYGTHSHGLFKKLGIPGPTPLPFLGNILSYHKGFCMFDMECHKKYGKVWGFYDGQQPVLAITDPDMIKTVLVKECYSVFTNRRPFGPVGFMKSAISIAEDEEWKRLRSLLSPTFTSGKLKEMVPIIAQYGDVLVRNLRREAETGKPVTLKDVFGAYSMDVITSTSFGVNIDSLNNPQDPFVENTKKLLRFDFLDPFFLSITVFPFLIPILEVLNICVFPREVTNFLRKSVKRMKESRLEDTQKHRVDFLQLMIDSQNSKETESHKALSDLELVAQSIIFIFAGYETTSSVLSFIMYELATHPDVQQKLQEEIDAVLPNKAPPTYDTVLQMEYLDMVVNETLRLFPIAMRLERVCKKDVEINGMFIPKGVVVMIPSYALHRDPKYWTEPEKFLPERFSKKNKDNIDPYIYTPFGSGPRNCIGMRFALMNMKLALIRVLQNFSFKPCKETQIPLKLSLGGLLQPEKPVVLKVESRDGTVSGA
CYP 2C19, sequence (P33261 whole entry): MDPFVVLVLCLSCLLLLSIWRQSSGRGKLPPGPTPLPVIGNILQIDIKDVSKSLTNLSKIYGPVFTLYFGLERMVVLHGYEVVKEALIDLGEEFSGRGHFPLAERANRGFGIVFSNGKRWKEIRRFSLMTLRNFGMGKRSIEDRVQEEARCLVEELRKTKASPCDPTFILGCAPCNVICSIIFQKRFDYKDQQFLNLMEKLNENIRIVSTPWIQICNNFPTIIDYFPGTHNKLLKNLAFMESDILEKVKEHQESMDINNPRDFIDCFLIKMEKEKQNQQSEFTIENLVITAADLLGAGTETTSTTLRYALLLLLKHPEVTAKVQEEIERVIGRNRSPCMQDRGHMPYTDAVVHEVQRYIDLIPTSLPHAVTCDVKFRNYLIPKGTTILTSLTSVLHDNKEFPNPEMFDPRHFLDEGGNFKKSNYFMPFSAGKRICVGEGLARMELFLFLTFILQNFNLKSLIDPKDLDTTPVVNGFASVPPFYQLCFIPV
CYP 1A2, sequence (P05177 whole entry): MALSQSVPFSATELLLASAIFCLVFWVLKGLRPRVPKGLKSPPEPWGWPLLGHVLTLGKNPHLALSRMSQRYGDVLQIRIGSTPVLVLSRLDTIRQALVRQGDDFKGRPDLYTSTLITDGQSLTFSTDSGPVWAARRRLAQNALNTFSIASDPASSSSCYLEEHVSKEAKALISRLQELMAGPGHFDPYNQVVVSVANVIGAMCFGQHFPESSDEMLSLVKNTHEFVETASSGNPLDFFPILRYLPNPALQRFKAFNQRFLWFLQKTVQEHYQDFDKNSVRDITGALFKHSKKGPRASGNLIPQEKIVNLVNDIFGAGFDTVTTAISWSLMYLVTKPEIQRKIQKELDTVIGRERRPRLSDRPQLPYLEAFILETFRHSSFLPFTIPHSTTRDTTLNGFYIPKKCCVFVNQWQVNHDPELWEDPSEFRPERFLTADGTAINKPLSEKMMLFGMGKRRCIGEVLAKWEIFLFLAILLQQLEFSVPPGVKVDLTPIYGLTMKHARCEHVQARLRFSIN
CYP 2D6, sequence (P10635 whole entry): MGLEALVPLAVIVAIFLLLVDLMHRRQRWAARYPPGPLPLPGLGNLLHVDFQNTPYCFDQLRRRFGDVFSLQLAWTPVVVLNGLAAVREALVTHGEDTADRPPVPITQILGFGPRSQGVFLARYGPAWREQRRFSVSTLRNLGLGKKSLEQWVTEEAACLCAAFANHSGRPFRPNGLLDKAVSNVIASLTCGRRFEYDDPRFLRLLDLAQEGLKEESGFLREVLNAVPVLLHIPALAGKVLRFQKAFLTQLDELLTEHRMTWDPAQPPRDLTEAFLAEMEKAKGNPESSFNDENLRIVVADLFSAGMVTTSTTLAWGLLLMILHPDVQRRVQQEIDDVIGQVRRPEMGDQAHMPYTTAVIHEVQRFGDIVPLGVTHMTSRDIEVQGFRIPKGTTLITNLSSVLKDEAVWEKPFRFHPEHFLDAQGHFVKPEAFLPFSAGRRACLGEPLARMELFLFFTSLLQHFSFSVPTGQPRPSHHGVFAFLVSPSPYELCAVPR

For `CCOP(=O)(OCC)OCC(CNC(=O)CC1=C(C)/C(=C/c2ccc([S+](C)[O-])cc2)c2ccc(F)cc21)OP(=O)(OCC)OCC` (stereo not shown) [Compound 99, (Z)-tetraethyl 3-(2-(5-fluoro-2-methyl-1-(4-(methylsulfinyl)benzylidene)-1H-inden-3-yl)acetamido)propane-1,2-diyl diphosphate], the MTD at 1 week (in vivo) was greater than 500 mg/kg/day.
For `CC(=O)Oc1ccccc1C(=O)O` [ASA, acetylsalicylic acid], the “effect on BC xenograft growth” value ([1]; 40 mg/kg/d) was “no effect”, the “oxidation by CYP 1A2” value (CYP 1A2) was “cannot be oxidized” and the “oxidation (conversion to 5-OH-PSA) by CYP 2C19” value (CYP 2C19) was “cannot be oxidized”. For the same molecule, the “oxidation by CYP 2C9” value (CYP 2C9) was “cannot be oxidized”, the “oxidation by CYP 3A4” value (CYP 3A4) was “cannot be oxidized” and the “oxidation (conversion to 5-OH-PSA) by CYP 2D6” value (CYP 2D6) was “cannot be oxidized”.
With `COc1ccc2c(c1)c(CC(=O)O)c(C)n2C(=O)c1ccc(Cl)cc1` [indomethacin, reference compound] the “gastric damage, H&E stained gastric tissue sections” value [2] was “caused gastric damage” and the Tmax ([3]; mouse, plasma, ip, 58 mg/kg) was 1 h.
In the case of `CC(C)Cc1ccc(C(C)C(=O)O)cc1` (stereo not shown) [ibuprofen, reference compound], the pIC50 ([4]; U87, 24-hour growth inhibition) was no more than 3.00 and the “accumulation in A431 cells” value (A431 skin cancer cells; limit of detection 2.5 pmol) was “no significant accumulation”.
With `CCOP(=O)(OCC)OCCCCOC(=O)C(C)c1ccc(CC(C)C)cc1` (stereo not shown) [Compound 2, phospho-ibuprofen] the pIC50 ([4]; 24 h) was 4.01, the “stability and circulation in blood” value [5] was “rapidly hydrolyzed” and the “level inside the cells” value (A431 skin cancer cells; 100 pM) was 0.75 nM. For the same molecule, the “increase over the other two compounds” value (A431 skin cancer cells; limit of detection 2.5 pmol) was no less than 300 fold.
With `CCOP(=O)(OCC)OCCc1ccc(OC(=O)Cc2c(C)n(C(=O)c3ccc(Cl)cc3)c3ccc(OC)cc23)cc1` [Compound 93] the genotoxicity [6] was “no genotoxicity”, the “gastric damage, H&E stained gastric tissue sections” value ([7]; FIG. 18A) was “not” and the “reduction of ulcers compared to indomethacin” value ([7]; day 5, PTI 10 mg/kg/day) was 60%. The “rats that developed ulcers” value ([7]; day 5, gavage 4 days, indomethacin 4.75 mg/kg/day, PTI 10 mg/kg/day) was 40%, the “AUCtotal of PTI relative to indomethacin” value ([3]; FIG. 19, equimolar i.p. doses) was “about 3.5 times” and the “time at which PTI became undetectable post administration” value ([3]; single i.p. dose 100 mg/kg PTI) was 4 h. The “time of maximum concentration of PTI” value ([3]; single i.p. dose 100 mg/kg PTI) was 2 h, the “reduction of tumor growth” value (SW480 colon cancer cells) was 85% and the “heart histology vs healthy control mice” value [8] was “no differences”.
In the case of `CC(C)Cc1ccc(C(C)C(=O)OCCCCOP(=O)(O)O)cc1` (stereo not shown) [phospho-ibuprofen phosphate 505], the “accumulation in A431 cells” value (A431 skin cancer cells; limit of detection 2.5 pmol) was “no significant accumulation”.
In the case of `CC1=C(CC(=O)O)c2cc(F)ccc2/C1=C\c1ccc([S+](C)[O-])cc1` (stereo not shown) [Sulindac, sulindac, reference compound], the pIC50 ([4]; U87, 24-hour growth inhibition) was no more than 3.00, the “metabolite generated by PSA 95” value [9] was “no detectable” and the “inhibition of growth of xenografts” value [10] was 32%.
With `CCOP(=O)(OCC)OCCCCOC(=O)c1ccccc1OC(C)=O` [PA-III 506, phospho-aspirin] the “reduction of average tumor volume compared to controls” value ([1]; 120 mg/kg/d orally) was 62%, the “treated mice that had no tumors” value [1, 15] was 20% and the “treated mice that had tumors <100 mm^3” value [1, 15] was 30%. The “maximum tolerated dose (MTD)” value [11] was > 1,600 mg/kg and the “intact compound in plasma or xenografts” value [12] was “No intact PA-III 506 in either plasma or xenografts was detected”.
In the case of `CC1=C(CC(=O)O)c2cc(F)ccc2/C1=C\c1ccc(S(C)(=O)=O)cc1` [Sulindac sulfone, sulindac sulfone], the “metabolite generated by PSA 95” value [13] was “no detectable”, the AUC in lung [14] was 57.5 and the Tmax in lung [14] was 8 h. For the same molecule, the Tmax in plasma [14] was 8 h.
